For assay [1], the target named is PAK1 (Homo sapiens, UniProt Q13153). Briefly: In vitro kinase assay, PAK1 (Caliper EZ Reader conversion). The class given is biochemical. On the set-up: purchased Carna Biosciences. The method, then:
(§1) The effect of the compounds on the activity of SRC and PAK1 kinase were assessed. SRC and PAK1 kinase enzymes were obtained from Carna Biosciences.
Test compounds were dissolved in 100% DMSO to prepare a 20 mM stock. Compounds were stored in −20° C. and protected from light. A 100×solution of the compounds were prepared, from which 4-fold serial dilutions was made to achieve a total of 6 concentrations. Saracatinib was used as a positive control for the SRC assay, and FRAX597 was used as a positive control for the PAK1 assay. For the positive controls, a 3-fold serial dilution was made to achieve a total of 10 concentrations. 10 μL 1× Kinase buffer was used as the negative control.
First, 250 nL of the compounds at each dilution were transferred into wells of a 384-well plate. The PAK1 and SRC kinases were diluted to a 2.5×final concentration with 1×Kinase buffer. Then, 10 μL of enzyme mix was added to the 384-well plate, and the enzymes and compounds were pre-incubated at room temperature for 10 minutes. […] Then, 15 μL of substrate mix was added to a 384-well plate and reacted at room temperature for 30 min and 60 min. The reaction was stopped by adding 30 μL of the stop buffer, and the conversion rate was read using a Caliper EZ Reader.
(§2) Percent inhibition is calculated according to the following equation: […]
(§3) wherein “Conversion %_sample” is the conversion percentage value of the sample; “Conversion %_min” is the average conversion percentage value of the negative control; and “Conversion %_max” is the average conversion percentage value of the positive control.
(§4) The dose-response curve was fitted using GraphPad Prism software (version 5, […]), and the IC50 values for each compounds were calculated by log(inhibitor) vs. response using a variable slope program with the following formula:
(§5) Y=Bottom+(Top-Bottom)/(1+10^((Log IC50−X)*HillSlope))

Assay [2] has as its target T1, SRC (Homo sapiens, UniProt P12931).
T1 construct: purchased Carna Biosciences
Briefly: In vitro kinase assay, SRC (Caliper EZ Reader conversion). The class given is biochemical. Particulars: read-out: SRC IC50. The protocol:
as §1
Test compounds were dissolved in 100% DMSO to prepare a 20 mM stock. Compounds were stored in −20° C. and protected from light. […] Saracatinib was used as a positive control for the SRC assay, and FRAX597 was used as a positive control for the PAK1 assay. For the positive controls, a 3-fold serial dilution was made to achieve a total of 10 concentrations. 10 μL 1× Kinase buffer was used as the negative control.
First, 250 nL of the compounds at each dilution were transferred into wells of a 384-well plate. […] Then, 10 μL of enzyme mix was added to the 384-well plate, and the enzymes and compounds were pre-incubated at room temperature for 10 minutes. […] Then, 15 μL of substrate mix was added to a 384-well plate and reacted at room temperature for 30 min and 60 min. The reaction was stopped by adding 30 μL of the stop buffer, and the conversion rate was read using a Caliper EZ Reader.
as §2, §3, §4, §5

The term IC50 denotes the concentration that inhibits the measured activity by half.

T1 sequence (P12931 whole entry): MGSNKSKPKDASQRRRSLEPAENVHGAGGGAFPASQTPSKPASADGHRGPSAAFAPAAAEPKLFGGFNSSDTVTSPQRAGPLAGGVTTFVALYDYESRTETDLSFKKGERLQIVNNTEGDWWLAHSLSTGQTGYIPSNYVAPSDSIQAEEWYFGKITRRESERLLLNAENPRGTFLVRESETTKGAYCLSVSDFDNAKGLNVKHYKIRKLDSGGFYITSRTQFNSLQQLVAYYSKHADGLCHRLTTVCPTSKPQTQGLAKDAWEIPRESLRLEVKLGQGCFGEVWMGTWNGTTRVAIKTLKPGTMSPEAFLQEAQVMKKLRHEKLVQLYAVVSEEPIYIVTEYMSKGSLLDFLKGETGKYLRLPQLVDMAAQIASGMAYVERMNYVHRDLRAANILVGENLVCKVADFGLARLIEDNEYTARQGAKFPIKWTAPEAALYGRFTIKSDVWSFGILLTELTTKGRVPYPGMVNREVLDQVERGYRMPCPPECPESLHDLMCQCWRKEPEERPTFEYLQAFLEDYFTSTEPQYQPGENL
Chain of PAK1 (Q13153 whole entry): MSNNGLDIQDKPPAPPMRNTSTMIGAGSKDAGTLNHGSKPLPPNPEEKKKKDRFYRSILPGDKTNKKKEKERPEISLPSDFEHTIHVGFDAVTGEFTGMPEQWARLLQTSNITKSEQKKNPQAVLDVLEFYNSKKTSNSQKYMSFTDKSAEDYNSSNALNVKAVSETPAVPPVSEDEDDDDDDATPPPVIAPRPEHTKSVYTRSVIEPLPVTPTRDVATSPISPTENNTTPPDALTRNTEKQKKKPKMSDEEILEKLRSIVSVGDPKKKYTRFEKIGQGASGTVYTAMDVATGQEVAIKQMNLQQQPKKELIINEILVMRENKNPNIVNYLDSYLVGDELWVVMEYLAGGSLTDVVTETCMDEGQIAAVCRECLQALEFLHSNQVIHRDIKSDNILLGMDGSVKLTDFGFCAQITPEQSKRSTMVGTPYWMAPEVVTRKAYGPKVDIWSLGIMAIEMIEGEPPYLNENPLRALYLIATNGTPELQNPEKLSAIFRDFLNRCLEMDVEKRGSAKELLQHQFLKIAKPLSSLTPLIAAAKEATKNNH

On to `CNc1ncc2c(n1)N1CCN=C1C(c1ccc(N3CCN(C)C3=O)cc1Cl)=C2` [Compound 23, 1-(3-chloro-4-(2-(methylamino)-8,9-dihydroimidazo[1′,2′:1,6]pyrido[2,3-d]pyrimidin-6-yl)phenyl)-3-methylimidazolidin-2-one], for which the results for the IC50 in assay [1] and in assay [2] were 0.1 to 10 µM and over 10 µM, respectively.

For `CCNc1ncc2c(n1)N1CCN=C1C(c1ccc(-n3ccnc(C)c3=O)cc1Cl)=C2` [Compound 24, 1-(3-chloro-4-(2-(ethylamino)-8,9-dihydroimidazo[1′,2′:1,6]pyrido[2,3-d]pyrimidin-6-yl)phenyl)-3-methylpyrazin-2(1H)-one], the IC50 is 0.1 to 10 µM in assay [1] and over 10 µM in assay [2].

Consider `CNc1ncc2c(n1)N1CCN=C1C(c1ccc(-c3cncc(C)n3)cc1Cl)=C2` [Compound 25, 6-(2-chloro-4-(6-methylpyrazin-2-yl)phenyl)-N-methyl-8,9-dihydroimidazo[1′,2′:1,6]pyrido[2,3-d]pyrimidin-2-amine], for which the IC50 in assay [1] was 0.1 to 10 µM; in assay [2] it was over 10 µM.

With `Fc1cc(Nc2ncc3c(n2)N2CCN=C2C(c2ccc(Cl)cc2)=C3)ccc1N1CCNCC1` [Compound 26, 6-(4-chlorophenyl)-N-(3-fluoro-4-(piperazin-1-yl)phenyl)-8,9-dihydroimidazo[1′,2′:1,6]pyrido[2,3-d]pyrimidin-2-amine], the values for the IC50 in assay [1] and in assay [2] were 0.1 to 10 µM and under 0.1 µM, respectively.

In the case of `Fc1cc(Nc2ncc3c(n2)N2CCN=C2C(c2ccccc2)=C3)ccc1N1CCNCC1` [Compound 27, N-(3-fluoro-4-(piperazin-1-yl)phenyl)-6-phenyl-8,9-dihydroimidazo[1′,2′:1,6]pyrido[2,3-d]pyrimidin-2-amine], the IC50 in assay [1] is over 10 µM; in assay [2], under 0.1 µM.

Turning to `Fc1cc(N2CCNCC2)ccc1Nc1ncc2c(n1)N1CCN=C1C(c1ccc(Cl)cc1)=C2` [Compound 28, 6-(4-chlorophenyl)-N-(2-fluoro-4-(piperazin-1-yl)phenyl)-8,9-dihydroimidazo[1′,2′:1,6]pyrido[2,3-d]pyrimidin-2-amine], the IC50 in assay [1] was over 10 µM; in assay [2], 0.1 to 10 µM.

Take `Fc1cc(N2CCNCC2)ccc1Nc1ncc2c(n1)N1CCN=C1C(c1ccccc1)=C2` [Compound 29, N-(2-fluoro-4-(piperazin-1-yl)phenyl)-6-phenyl-8,9-dihydroimidazo[1′,2′:1,6]pyrido[2,3-d]pyrimidin-2-amine]: the IC50 is over 10 µM in assay [1] and 0.1 to 10 µM in assay [2].

As to `COc1ccccc1C1=Cc2cnc(Nc3ccc(N4CCNCC4)cc3F)nc2N2CCN=C12` [Compound 31, N-(2-fluoro-4-(piperazin-1-yl)phenyl)-6-(2-methoxyphenyl)-8,9-dihydroimidazo[1′,2′:1,6]pyrido[2,3-d]pyrimidin-2-amine], the IC50 in assay [1] is over 10 µM; in assay [2] it was 0.1 to 10 µM.

For the compound `COc1nc(N2CCNCC2)ccc1Nc1ncc2c(n1)N1CCN=C1C(c1ccc(Cl)cc1Cl)=C2` [Compound 35, 6-(2,4-dichlorophenyl)-N-(2-methoxy-6-(piperazin-1-yl)pyridin-3-yl)-8,9-dihydroimidazo[1′,2′:1,6]pyrido[2,3-d]pyrimidin-2-amine], the IC50 in assay [1] and in assay [2] was 0.1 to 10 µM throughout.

Regarding `COc1nc(N2CCNCC2)ccc1Nc1ncc2c(n1)N1CCN=C1C(c1ccc(Cl)cc1)=C2` [Compound 36, 6-(4-chlorophenyl)-N-(2-methoxy-6-(piperazin-1-yl)pyridin-3-yl)-8,9-dihydroimidazo[1′,2′:1,6]pyrido[2,3-d]pyrimidin-2-amine], the 50% inhibitory concentration (IC50) was over 10 µM in assay [1] and 0.1 to 10 µM in assay [2].

In the case of `COc1nc(N2CCNCC2)ccc1Nc1ncc2c(n1)N1CCN=C1C(c1ccccn1)=C2` [Compound 39, N-(2-methoxy-6-(piperazin-1-yl)pyridin-3-yl)-6-(pyridin-2-yl)-8,9-dihydroimidazo[1′,2′:1,6]pyrido[2,3-d]pyrimidin-2-amine], the IC50 in assay [1] and in assay [2] was over 10 µM throughout.

For `COc1nc(N2CCNCC2)ccc1Nc1ncc2c(n1)N1CCN=C1C(C#Cc1cccnc1)=C2` [Compound 40, N-(2-methoxy-6-(piperazin-1-yl)pyridin-3-yl)-6-(pyridin-3-ylethynyl)-8,9-dihydroimidazo[1′,2′:1,6]pyrido[2,3-d]pyrimidin-2-amine], the IC50 in assay [1] and in assay [2] was over 10 µM throughout.

Consider `COc1nc(N2CCNCC2)ccc1Nc1ncc2c(n1)N1CCN=C1C(c1ccc(-n3ccnc(C)c3=O)cc1)=C2` [Compound 42, 1-(4-(2-((2-methoxy-6-(piperazin-1-yl)pyridin-3-yl)amino)-8,9-dihydroimidazo[1′,2′:1,6]pyrido[2,3-d]pyrimidin-6-yl)phenyl)-3-methylpyrazin-2(1H)-one], for which the IC50 in assay [1] and in assay [2] was over 10 µM each time.

Turning to `C1=C(c2ccccc2)C2=NCCN2c2nc(Nc3ccncc3)ncc21` [Compound 43, 6-phenyl-N-(pyridin-4-yl)-8,9-dihydroimidazo[1′,2′:1,6]pyrido[2,3-d]pyrimidin-2-amine], the IC50 in assay [1] is over 10 µM; in assay [2], 0.1 to 10 µM.

Regarding `C1=C(c2ccccn2)C2=NCCN2c2nc(Nc3ccncc3)ncc21` [Compound 44, 6-(pyridin-2-yl)-N-(pyridin-4-yl)-8,9-dihydroimidazo[1′,2′:1,6]pyrido[2,3-d]pyrimidin-2-amine], the IC50 in assay [1] was over 10 µM; in assay [2], 0.1 to 10 µM.

For `C1=C(c2ccncc2)C2=NCCN2c2nc(Nc3ccncc3)ncc21` [Compound 45, N,6-di(pyridin-4-yl)-8,9-dihydroimidazo[1′,2′:1,6]pyrido[2,3-d]pyrimidin-2-amine], the IC50 in assay [1] and in assay [2] was over 10 µM each time.

Take `Clc1cnccc1C1=Cc2cnc(Nc3ccncc3)nc2N2CCN=C12` [Compound 46, 6-(3-chloropyridin-4-yl)-N-(pyridin-4-yl)-8,9-dihydroimidazo[1′,2′:1,6]pyrido[2,3-d]pyrimidin-2-amine]: the 50% inhibitory concentration (IC50) in assay [1] and in assay [2] was over 10 µM in each case.

For `Clc1ccc(C2=Cc3cnc(Nc4ccncc4)nc3N3CCN=C23)c(Cl)c1` [Compound 47, 6-(2,4-dichlorophenyl)-N-(pyridin-4-yl)-8,9-dihydroimidazo[1′,2′:1,6]pyrido[2,3-d]pyrimidin-2-amine], the IC50 was over 10 µM in assay [1] and 0.1 to 10 µM in assay [2].

As for `CN1CCN(CCNc2ncc3c(n2)N2CCN=C2C(c2c(Cl)cccc2Cl)=C3)CC1` [Compound 48, 6-(2,6-dichlorophenyl)-N-(2-(4-methylpiperazin-1-yl)ethyl)-8,9-dihydroimidazo[1′,2′:1,6]pyrido[2,3-d]pyrimidin-2-amine], the IC50 in assay [1] is over 10 µM; in assay [2], 0.1 to 10 µM.

Turning to `Clc1cccc(Cl)c1C1=Cc2cnc(NCCC3CCNCC3)nc2N2CCN=C12` [Compound 49, 6-(2,6-dichlorophenyl)-N-(2-(piperidin-4-yl)ethyl)-8,9-dihydroimidazo[1′,2′:1,6]pyrido[2,3-d]pyrimidin-2-amine], the IC50 was over 10 µM in assay [1] and 0.1 to 10 µM in assay [2].

As for `Clc1cccc(Cl)c1C1=Cc2cnc(N3CCNCC3)nc2N2CCN=C12` [Compound 50, 6-(2,6-dichlorophenyl)-2-(piperazin-1-yl)-8,9-dihydroimidazo[1′,2′:1,6]pyrido[2,3-d]pyrimidine], the concentration for half-maximal inhibition (IC50) in assay [1] and in assay [2] was over 10 µM in each case.

For `Clc1cccc(Cl)c1C1=Cc2cnc(Nc3ccncc3)nc2N2CCN=C12` [Compound 52, 6-(2,6-dichlorophenyl)-N-(pyridin-4-yl)-8,9-dihydroimidazo[1′,2′:1,6]pyrido[2,3-d]pyrimidin-2-amine], the results for the IC50 in assay [1] and in assay [2] were over 10 µM and under 0.1 µM, respectively.

Consider `Fc1ccccc1Nc1ncc2c(n1)N1CCCN=C1C(c1cccc3[nH]ccc13)=C2` [Compound 57, N-(2-fluorophenyl)-6-(1H-indol-4-yl)-9,10-dihydro-8H-pyrido[1,6-a:2,3-d′]dipyrimidin-2-amine], for which the IC50 in assay [1] and in assay [2] was over 10 µM throughout.

For `Fc1ccccc1Nc1ncc2c(n1)N1CCCN=C1C(c1cccc3[nH]ncc13)=C2` [Compound 58, N-(2-fluorophenyl)-6-(1H-indazol-4-yl)-9,10-dihydro-8H-pyrido[1,6-a:2,3-d′]dipyrimidin-2-amine], the half-maximal inhibitory concentration (IC50) in assay [1] is over 10 µM; in assay [2], 0.1 to 10 µM.

(Values after patent US20230303570A1, “KINASE INHIBITORS AND USES THEREOF” (ABM Therapeutics Corporation, priority 2020, published 2023).)
